From the Kinase Knowledgebase extract (Sharma et al. 2016) come the findings set out here.

The target in assay [1] is EGFR (human) (UniProt P00533). Particulars: mda435.
The target of assay [2] is EGFR (human) (UniProt P00533). Particulars: a431.
Assay [3] deals with EGFR (human) (UniProt P00533). Particulars: skbr3.
Assay [4] concerns the target EGFR (human) (UniProt P00533). Particulars: a2780s.
In assay [5] the target is EGFR (human) (UniProt P00533). Particulars: a2780ddp.
The target in assay [6] is EGFR (human) (UniProt P00533). Particulars: sw 620.
Assay [7] concerns the target EGFR (human) (UniProt P00533). Particulars: lox.
In assay [8] the target is EGFR (human) (UniProt P00533). Particulars: mcf-7.
A further assay addresses EGFR (UniProt P00533).
The target of assay [9] is EGFR (human) (UniProt P00533). Particulars: 3t3.
The target in assay [10] is EGFR (human) (UniProt P00533). Particulars: her2/3t3.

In brackets after ≈: the same amount, converted by molar mass. Several values for one entry are separate records, joined by “and”; a condition that tells them apart may be missing. Identical values can stand only once.

EGFR (human), sequence (P00533 whole entry, looked up): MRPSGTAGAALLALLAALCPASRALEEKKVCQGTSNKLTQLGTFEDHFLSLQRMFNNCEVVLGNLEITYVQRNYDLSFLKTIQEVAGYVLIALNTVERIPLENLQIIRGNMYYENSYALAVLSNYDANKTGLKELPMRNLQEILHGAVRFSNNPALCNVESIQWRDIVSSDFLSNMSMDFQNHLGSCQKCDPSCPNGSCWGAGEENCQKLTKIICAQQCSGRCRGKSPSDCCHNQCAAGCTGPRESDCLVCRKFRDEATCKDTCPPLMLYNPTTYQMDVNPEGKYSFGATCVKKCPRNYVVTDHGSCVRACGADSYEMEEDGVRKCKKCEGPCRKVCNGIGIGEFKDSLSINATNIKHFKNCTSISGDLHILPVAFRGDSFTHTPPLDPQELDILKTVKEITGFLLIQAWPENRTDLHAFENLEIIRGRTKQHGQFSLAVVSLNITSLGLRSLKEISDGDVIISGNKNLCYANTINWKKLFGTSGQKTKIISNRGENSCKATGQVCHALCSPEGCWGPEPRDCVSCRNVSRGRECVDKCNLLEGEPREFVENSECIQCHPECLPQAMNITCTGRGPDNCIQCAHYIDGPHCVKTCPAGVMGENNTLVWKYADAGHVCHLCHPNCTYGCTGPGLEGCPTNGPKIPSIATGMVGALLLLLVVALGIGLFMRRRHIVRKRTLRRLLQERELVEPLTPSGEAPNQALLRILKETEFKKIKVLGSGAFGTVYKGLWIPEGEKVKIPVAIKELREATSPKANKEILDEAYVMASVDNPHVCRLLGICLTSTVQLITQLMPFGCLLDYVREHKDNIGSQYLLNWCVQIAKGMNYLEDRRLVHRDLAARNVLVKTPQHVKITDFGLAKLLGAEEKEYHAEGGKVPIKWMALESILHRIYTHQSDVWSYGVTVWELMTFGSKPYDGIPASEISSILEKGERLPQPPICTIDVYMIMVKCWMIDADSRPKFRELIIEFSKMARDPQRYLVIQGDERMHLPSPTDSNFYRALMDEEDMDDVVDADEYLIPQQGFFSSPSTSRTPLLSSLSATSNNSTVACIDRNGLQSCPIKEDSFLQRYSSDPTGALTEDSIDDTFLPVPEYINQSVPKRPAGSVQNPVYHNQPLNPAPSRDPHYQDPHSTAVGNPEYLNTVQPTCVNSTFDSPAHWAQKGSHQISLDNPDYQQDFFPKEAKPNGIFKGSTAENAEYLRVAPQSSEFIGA
EGFR, sequence (P00533 whole entry, looked up): as above

The term IC50 denotes the concentration needed to halve the response being measured. Higher therefore signals lower potency. As for `N#Cc1cnc2cnc(F)cc2c1Nc1cccc(Br)c1`, the IC50 at EGFR (human) [1] is more than 5 µg/mL; against EGFR (human) [2], 3.92 µg/mL (≈ 11.4 µM); on EGFR (human) [3], more than 5 µg/mL; on EGFR (human) [4], 3.33 µg/mL (≈ 9.7 µM); against EGFR (human) [5] it was more than 5 µg/mL; against EGFR (human) [6] it was more than 5 µg/mL.
Turning to `CNc1cc2c(Nc3cccc(Br)c3)c(C#N)cnc2cn1`, the IC50 against EGFR (human) [1] was 0.98 µg/mL (≈ 2.77 µM); at EGFR (human) [2] it was 0.31 µg/mL and 0.209 µg/mL; on EGFR (human) [3], 1.88 µg/mL (≈ 5.3 µM); on EGFR (human) [6], 4.62 µg/mL (≈ 13 µM); against EGFR (human) [7], 3.6 µg/mL (≈ 10.2 µM); against EGFR (human) [8] it was 10900 nM and 3870 nM. The IC100 against EGFR (human) [2] was determined as 0.59 µM.
On to `N#Cc1cnc2cnc(N)cc2c1Nc1cccc(Br)c1`, for which the IC50 was more than 5 µg/mL at EGFR (human) [1]; 0.4 µg/mL (≈ 1.18 µM) at EGFR (human) [2]; 4.1 µg/mL (≈ 12.1 µM) against EGFR (human) [3]; 3.5 µg/mL (≈ 10.3 µM) against EGFR (human) [4]; 3.1 µg/mL (≈ 9.11 µM) against EGFR (human) [5]; more than 5 µg/mL against EGFR (human) [6].
Regarding `CN(C)C/C=C/C(=O)Nc1cnc2ncc(C#N)c(Nc3cccc(Br)c3)c2c1`, the IC50 against EGFR is more than 800 nM; on EGFR (human) [1] it was more than 5 µg/mL; at EGFR (human) [2], 2.76 µg/mL (≈ 6.12 µM); against EGFR (human) [3], 4.83 µg/mL (≈ 10.7 µM); against EGFR (human) [4], 1.77 µg/mL (≈ 3.92 µM); on EGFR (human) [5], 4 µg/mL (≈ 8.87 µM). The molecule further yielded an IC50 at EGFR (human) [6] of more than 5 µg/mL.
As for `CC#CC(=O)Nc1cc2c(Nc3cccc(Br)c3)c(C#N)cnc2cn1`, the IC50 came to 0.88 µg/mL (≈ 2.17 µM) on EGFR (human) [1]; 0.23 µg/mL (≈ 0.566 µM) against EGFR (human) [2]; 0.12 µg/mL (≈ 0.295 µM) on EGFR (human) [3]; 0.13 µg/mL (≈ 0.32 µM) against EGFR (human) [5]; 0.17 µg/mL (≈ 0.418 µM) against EGFR (human) [6]; 0.07 µg/mL (≈ 0.172 µM) on EGFR (human) [7]. Moreover, at EGFR (human) [8], the IC50 is 980 nM and 400 nM.
At EGFR, `CC#CC(=O)Nc1cnc2ncc(C#N)c(Nc3ccc(F)c(Cl)c3)c2c1` displayed an IC50 of more than 100 nM.
`CN(C)c1cc[n+](-c2cc3c(Nc4cccc(Br)c4)c(C#N)cnc3cn2)cc1`: the IC50 at EGFR (human) [1] was 47 µg/mL; against EGFR (human) [2], 59 µg/mL; against EGFR (human) [3], 41 µg/mL; on EGFR (human) [4], 31 µg/mL; against EGFR (human) [5], 52 µg/mL; at EGFR (human) [6], 42 µg/mL. Besides, the IC50 against EGFR (human) [7] amounted to 56 µg/mL.
Consider `COc1ccc(CNc2cc3c(Nc4cccc(Br)c4)c(C#N)cnc3cn2)cc1`, for which the IC50 on EGFR (human) [1] worked out at 2.4 µg/mL (≈ 5.21 µM); at EGFR (human) [2] it was 0.4 µg/mL (≈ 0.869 µM); against EGFR (human) [3], 2.9 µg/mL (≈ 6.3 µM); at EGFR (human) [4], 1 µg/mL (≈ 2.17 µM); against EGFR (human) [5], 1.8 µg/mL (≈ 3.91 µM); against EGFR (human) [6], 4.1 µg/mL (≈ 8.91 µM).
Regarding `C[Si](C)(C)C#Cc1cc2c(Nc3cccc(Br)c3)c(C#N)cnc2cn1`, the IC50 against EGFR (human) [1] turned out to be 4.2 µg/mL (≈ 9.97 µM); against EGFR (human) [2], 3.06 µg/mL (≈ 7.25 µM); against EGFR (human) [3], 3.59 µg/mL (≈ 8.52 µM); at EGFR (human) [4], 2.34 µg/mL (≈ 5.56 µM); against EGFR (human) [5], 2.97 µg/mL (≈ 7.05 µM); on EGFR (human) [6], 4.72 µg/mL (≈ 11.2 µM).
Consider `CN(C)C/C=C/C(=O)Nc1cc2c(Nc3cccc(Br)c3)c(C#N)cnc2cn1`, for which the IC50 was 0.464 µg/mL (≈ 1.03 µM) against EGFR (human) [1]; 0.088 µg/mL (≈ 0.195 µM) against EGFR (human) [2]; 0.0357 µg/mL (≈ 0.079 µM) on EGFR (human) [3]; 0.356 µg/mL (≈ 0.789 µM) against EGFR (human) [6]; 0.272 µg/mL and 0.373 µg/mL at EGFR (human) [9]; 0.106 µg/mL and 0.0436 µg/mL against EGFR (human) [10].
Take `CN(C)CCOc1cc2c(Nc3ccc(F)c(Cl)c3)c(C#N)cnc2cn1`: the IC50 against EGFR (human) [1] is more than 5 µg/mL; on EGFR (human) [2] it was 2.23 µg/mL (≈ 5.77 µM); against EGFR (human) [3], 4.63 µg/mL (≈ 12 µM); at EGFR (human) [6] it was more than 5 µg/mL; against EGFR (human) [9] it was 4.48 µg/mL (≈ 11.6 µM); on EGFR (human) [10] it was more than 5 µg/mL.
With `N#Cc1cnc2cnc(NCCN3CCOCC3)cc2c1Nc1cccc(Br)c1`, the IC50 against EGFR (human) [1] was found to be 49 µg/mL (≈ 108 µM); on EGFR (human) [2], 0.5 µg/mL (≈ 1.1 µM); on EGFR (human) [4], 0.5 µg/mL (≈ 1.1 µM); at EGFR (human) [6], 41 µg/mL (≈ 90.4 µM); against EGFR (human) [7], 57 µg/mL (≈ 126 µM).
